In patent US4603016A, “Cryogenic brine separation of water and isocyanates” (E. I. Du Pont de Nemours and Company, priority 1985, dated 1986):

Experiment: storage stability of isolated MIC preparations (GC determination of MIC content immediately following collection and after storage for two weeks)
Format: physicochemical
Details: for % MIC After Storage / % MIC As Isolated: GC; for % MIC After Storage: after storage for two weeks; for % MIC As Isolated: immediately following collection
Description: This example illustrates the stability of MIC preparations isolated by the process of the present invention. The procedure described in Example 1 was substantially repeated at MMF liquid feed rates of 2 mL/min. As described in Example 3, samples of the product of the brine condenser were collected for one hour periods, weighed, and yields estimated. Each sample was then analyzed by GC to determine MIC content immediately following collection, and again after storage for two weeks.

## CN=C=O [MIC, methyl isocyanate]
1st hr sample
  % MIC After Storage: 92.3%
  % MIC As Isolated: > 98%
2nd hr sample
  % MIC After Storage: 92.3%
  % MIC As Isolated: > 98%
3rd hr sample
  % MIC After Storage: 93.1%
  % MIC As Isolated: > 98%
4th hr sample
  % MIC After Storage: 95.0%
  % MIC As Isolated: > 98%
5th hr sample
  % MIC After Storage: 95.4%
  % MIC As Isolated: > 98%
Storage for two weeks, all samples
  degradation of product MIC during storage: minimal degradation
